Data from PubChem BioAssay AID2060888 (Molecular Pharmacology Branch, DTP, NCI, 2025).

System: 695427-040-R-J1-PDC complex spheroid viability
Experiment: Anticancer human tumor 695427-040-R-J1-PDC patient-derived colon adenocarcinoma cell line growth inhibition [RAS]
Conditions: for IC50: curve of first compound; for viability, T/C: stronger effect = lower value
Outline: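 Tumour cells grown as complex spheroids with HUVEC endothelial cells and mesenchymal stem cells, treated with RAS pathway inhibitor combinations. Each agent spans half-log steps from near clinical Cmax, or 10 microM where Cmax is unknown.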
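Note: viability read after seven days of drug exposure.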
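Throughout, for viability, T/C: 100% = DMSO vehicle control viability.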

`O=C(c1ccc(F)c(F)c1Nc1ccc(I)cc1F)N1CC(O)([C@@H]2CCCCN2)C1` + CCn1c(-c2cccnc2C(C)OC)c2c3cc(ccc31)N1CCOC(CC(NC(=O)C(C(C)C)N(C)C(=O)C3(F)CCN(C(=O)C#CC(C)(C)N(C)C)CC3)C(=O)N3CCCC(N3)C(=O)OCC(C)(C)C2)C1 was tested. Which IC50 (second compound 0.000949 µM) did it give?
The IC50 was 0.0812 µM.

What about the IC50 (second compound 0.003 µM) of the same compound?
The IC50 was 0.0855 µM.

What about the IC50 (second compound 0.00949 µM) of the same compound?
Its IC50 is 0.0803 µM.

And the IC50 (second compound 0.03 µM)?
Its IC50 is 0.067 µM.

And the IC50 (second compound 0.0949 µM)?
Its IC50 is 0.0664 µM.

What about the IC50 (second compound 0.3 µM) of the same compound?
The IC50 was 0.0354 µM.

What about the viability, T/C (second compound 0.000949 µM, first compound 0.00316 µM) of the same compound?
The viability, T/C was 71.6%.

And the viability, T/C (second compound 0.000949 µM, first compound 0.01 µM)?
The viability, T/C was 85.1%.

And the viability, T/C (second compound 0.000949 µM, first compound 0.0316 µM)?
Its viability, T/C is 71%.

And the viability, T/C (second compound 0.000949 µM, first compound 0.1 µM)?
The viability, T/C was 44.4%.

What about the viability, T/C (second compound 0.000949 µM, first compound 0.316 µM) of the same compound?
The viability, T/C was 19.4%.

And the viability, T/C (second compound 0.000949 µM, first compound 1 µM)?
Its viability, T/C is 9.33%.

And the viability, T/C (second compound 0.003 µM, first compound 0.00316 µM)?
The viability, T/C was 91.1%.

What about the viability, T/C (second compound 0.003 µM, first compound 0.01 µM) of the same compound?
The viability, T/C was 88.8%.

And the viability, T/C (second compound 0.003 µM, first compound 0.0316 µM)?
The viability, T/C was 66.6%.

What about the viability, T/C (second compound 0.003 µM, first compound 0.1 µM) of the same compound?
The viability, T/C was 51.4%.

And the viability, T/C (second compound 0.003 µM, first compound 0.316 µM)?
Its viability, T/C is 17.6%.

What about the viability, T/C (second compound 0.003 µM, first compound 1 µM) of the same compound?
The viability, T/C was 6.84%.

What about the viability, T/C (second compound 0.00949 µM, first compound 0.00316 µM) of the same compound?
Its viability, T/C is 88.6%.

What about the viability, T/C (second compound 0.00949 µM, first compound 0.01 µM) of the same compound?
Its viability, T/C is 67.5%.

And the viability, T/C (second compound 0.00949 µM, first compound 0.0316 µM)?
Its viability, T/C is 69.9%.

What about the viability, T/C (second compound 0.00949 µM, first compound 0.1 µM) of the same compound?
The viability, T/C was 48.1%.

And the viability, T/C (second compound 0.00949 µM, first compound 0.316 µM)?
Its viability, T/C is 22.3%.

And the viability, T/C (second compound 0.00949 µM, first compound 1 µM)?
Its viability, T/C is 9.42%.

And the viability, T/C (second compound 0.03 µM, first compound 0.00316 µM)?
The viability, T/C was 105%.

What about the viability, T/C (second compound 0.03 µM, first compound 0.01 µM) of the same compound?
Its viability, T/C is 80.2%.

And the viability, T/C (second compound 0.03 µM, first compound 0.0316 µM)?
Its viability, T/C is 66.3%.

And the viability, T/C (second compound 0.03 µM, first compound 0.1 µM)?
Its viability, T/C is 42.9%.

And the viability, T/C (second compound 0.03 µM, first compound 0.316 µM)?
The viability, T/C was 22.1%.

What about the viability, T/C (second compound 0.03 µM, first compound 1 µM) of the same compound?
The viability, T/C was 7.71%.

And the viability, T/C (second compound 0.0949 µM, first compound 0.00316 µM)?
The viability, T/C was 81.5%.

What about the viability, T/C (second compound 0.0949 µM, first compound 0.01 µM) of the same compound?
The viability, T/C was 84%.

And the viability, T/C (second compound 0.0949 µM, first compound 0.0316 µM)?
The viability, T/C was 60.6%.

And the viability, T/C (second compound 0.0949 µM, first compound 0.1 µM)?
The viability, T/C was 43.1%.

And the viability, T/C (second compound 0.0949 µM, first compound 0.316 µM)?
The viability, T/C was 20.8%.

What about the viability, T/C (second compound 0.0949 µM, first compound 1 µM) of the same compound?
Its viability, T/C is 7.03%.

What about the viability, T/C (second compound 0.3 µM, first compound 0.00316 µM) of the same compound?
Its viability, T/C is 73.4%.

What about the viability, T/C (second compound 0.3 µM, first compound 0.01 µM) of the same compound?
The viability, T/C was 65.5%.

And the viability, T/C (second compound 0.3 µM, first compound 0.0316 µM)?
Its viability, T/C is 47%.

What about the viability, T/C (second compound 0.3 µM, first compound 0.1 µM) of the same compound?
The viability, T/C was 42%.

And the viability, T/C (second compound 0.3 µM, first compound 0.316 µM)?
The viability, T/C was 19.2%.

What about the viability, T/C (second compound 0.3 µM, first compound 1 µM) of the same compound?
Its viability, T/C is 6.79%.
